One data set deals with 3T3-L1 cells. Kind of data set: Quantitative PCR of relative mRNA expression in cell culture samples. The settings on record: for Gapdh expression / Hk2 expression / Pfkfb3 expression: 62.5 µM for 24 h. The data set is classed as cell-based, Mouse. The method, then:
Mouse 3T3-L1 preadipocytes were maintained in proliferation medium containing DMEM supplemented with 10% (v/v) heat inactivated NBCS and 1% (v/v) penicillin-streptomycin at 37 °C with 5% CO2, humidified atmosphere. Cells were seeded in T-75 flasks at a density of 25×10^4 cells/flask. Cultures never became completely confluent according to the manufacturer's instructions. They were passaged using trypsin-EDTA solution once they reached 70-80% confluency. For differentiation, 3T3-L1 cells were seeded and after 24 h (day 1), cell differentiation was induced by changing the medium to high glucose DMEM containing 10% (v/v) heat inactivated FBS, 1% penicillin-streptomycin, 10 µg/mL insulin, 0.25 µM Dexamethasone (GAP), 0.5 mM IBMX (=differentiation medium I). On day 3, the medium was changed to high glucose DMEM containing 10% FBS, 1% penicillin- streptomycin, and 10 µg/mL insulin (=differentiation medium II). Thereafter, medium was changed every other day switching between differentiation medium I and differentiation medium II until day 12 or 23, when adipocytes were harvested. Control group preadipocytes were seeded at a higher density and harvested after two days. Test compounds were administered either at the initiation of differentiation, or after 15 days of differentiation and with every medium change. To determine the effect on preadipocyte differentiation, cells were seeded and after 24 h they were treated with neorogioldiol. Neorogioldiol was maintained in the culture medium throughout cell differentiation period. To determine the effect of neorogioldiol on mature adipocytes, cells were seeded and induced to differentiate for 14 days, then on day 15 neorogioldiol was added to the differentiation medium for 24 h before cells were harvested. Each compound used was diluted in a 90% carbowax™ 400, 10% (v/v) absolute ethanol solution serving as a control solvent. The final concentration in culture was 0.09% (v/v) carbowax and 0.01% (v/v) ethanol. Compounds were used at the following concentrations: neorogioldiol (1) 62.5µM and neorogioltriol (2) 25µM.
Adipocytes and preadipocytes were harvested using the TRI Reagent®. RNA isolation was carried out according to the manufacturer's instructions. The purified RNA was quantified using the Nanodrop micro-volume spectrophotometer and 500 ng of each sample were used as a template for reverse transcription. cDNA synthesis was performed using the PrimeScriptTM RT reagent Kit (TaKaRa, RR037A) according to manufacturer's instructions. The cDNA produced by the above described procedure was diluted and used as a template for two-step quantitative PCR in a StepOnePlus™ Real-Time PCR System (Applied Biosystems™, 4376600) for a maximum of 40 cycles, as follows: start step 95 °C for 3 min, repeat steps: 95 °C for 15 s and 60 °C for 30 s. Amplification was performed using KAPA SYBR® FAST Universal qPCR kit (Kapa Biosystems, KK4618) according to manufacturer's instructions. Relative quantitative analysis was accomplished calculating fold-changes of gene expression as 2-(ΔΔCt), where ΔCt is (Ct (gene of interest) - Ct (housekeeping gene)). Ppib was used as internal control gene in 3T3L1 cells and in the fat fraction of mice abdominal fat, Rps9 was used as internal control gene in the stromal vascular fraction of mice abdominal fat and Actb was used as internal control gene in liver samples. Table 1. List of primers used for quantitative real-time PCR analysis.

A short description of data set [1]: High fat diet-induced obesity mouse model (weight gain, abdominal fat, spleen weight, overall toxicity). The data set is classed as in vivo. The settings on record: high fat diet mice. The procedure:
(§1) All procedures were conducted in compliance with protocols approved by the Animal Care Committee of the University of Crete, School of Medicine (Facility number EL91-BIOexp-06), in conjunction with the Veterinary Department of the Region of Crete, Heraklion, Crete, Greece. C57BL/6 adult male mice were maintained in a 12 h day/night cycle and 21-23 °C conditions. Mice were provided with water and either normal fat diet, or high fat diet (60% energy from fat) ad libitum. All mice were weighed every 48 h.
(§2) Neorogioldiol was first dissolved in 90% carbowaxTM 400, 10% (v/v) absolute ethanol solution and then diluted 1:10 in water for injection. A dose of 0.25 mg neorogioldiol in a total volume of 200 µl was administered intraperitoneally every 48 h in mice in high fat + neorogioldiol group starting from day 1. 4-5 mice were used per group and each experiment was performed twice.
Abdominal fat lobes were weighed, washed in PBS, minced and dissolved with collagenase. They were incubated in 1.5mg/ml collagenase in 1% PBS-BSA, for 30 min at 37 °C. Next, homogenate was centrifuged at 800 rpm for 5 min at room temperature. The upper fatty phase, which contains the adipocytes, was collected and resuspended in TRI Reagent® and RNA isolation was carried out according to the manufacturer's instructions. The cell pellet, which is the stromal vascular fraction, was washed once with PBS and resuspended in TRI Reagent® for RNA isolation.

The nature of data set [2]: Serum biochemical toxicity markers in high fat diet-fed mice. The data set is classed as in vivo, C57BL/6 adult male mice. The settings on record: intraperitoneal 0.25 mg/mouse every 48 h for 35 days; vs control group. The procedure:
as §1, §2
To detect serum levels of alanine transaminase, aspartate transaminase, creatine phosphokinase and lactate dehydrogenase, serum was collected from peripheral blood via cardiac puncture under isoflurane anesthesia. Serum samples were stored at -80 °C. The levels of alanine transaminase, aspartate transaminase, creatine phosphokinase and lactate dehydrogenase were measured by standard enzymatic procedures using an automated biochemical analyzer AU5800 (Beckman).

Setting [3] is: cells differentiated in the presence of compound, 12 days, 1 at 62.5 µM, 2 at 25 µM.
[4] abbreviates: differentiation in presence of serial concentrations 62.5, 31.25, 15.625, 7.81 and 3.9 µM, dose-dependent.
Setting [5] is: mature adipocytes: differentiated 15 days, then 62.5 µM for 8 more days.
Where [6] appears, read: intraperitoneal 0.25 mg/mouse every 48 h for 35 days, vs high fat diet without neorogioldiol.

For neorogioldiol, in the data set on 3T3-L1 cells (adipocytes), the Gapdh expression entry is given as “decreasing”, the Hk2 expression entry is listed as “decreasing” and the Pfkfb3 expression entry is on record as “decreasing”. In the data set with 3T3-L1 cells (setting [3]), the Adipoq expression levels entry is on record as “restricted the increase”, the “Dlkl mRNA expression” value is reported as “diminished”, the Lep expression levels result is “restricted the increase” and the Slc2a4 expression levels entry is recorded as “restricted the increase”. In addition, in the data set on 3T3-L1 cells (setting [4]), the Lep levels entry is recorded as “restricted the increase” and the Slc2a4 levels entry is “restricted the increase”. Further, in the data set with 3T3-L1 cells (setting [5]), the Adipoq expression entry is given as “decreased the expression”, the Fabp4 expression entry was “decreased the expression” and the Pparg expression entry is on record as “decreased the expression”. Also, in the data set with 3T3-L1 cells (preadipocytes), the Gapdh expression result is “downregulated”, the Hk2 expression result was “downregulated” and the Pfkfb3 expression entry was “downregulated”. Besides, the “toxicity in vivo (overall)” value in data set [1] (0.25 mg/mouse i.p. every 48 h for 35 days) was “did not exhibit any toxicity in vivo”. Besides, in data set [1] (setting [6]), the abdominal fat mass result is “reduced abdominal fat mass” and the weight gain entry is “suppressed weight gain”. Moreover, in data set [2], the “alanine transaminase in serum” value is listed as “No difference”, the “aspartate transaminase in serum” value is on record as “No difference”, the “creatine phosphokinase in serum” value is “No difference” and the “lactate dehydrogenase in serum” value was “No difference”.

(Values after patent EP4556003A1, “ANTI-OBESITY AND ANTI-DIABETIC ACTIVITY OF BROMINATED DITERPENES FROM RED ALGAE OF THE GENUS LAURENCIA AND APPLICATIONS THEREOF” (priority 2023, dated 2025).)
